± gives the uncertainty stated by the source.
Experiment: xn = mol fraction of the nth substance listed

CCCC[n+]1ccn(C)c1.F[B-](F)(F)F + CCCC[n+]1ccn(C)c1.F[P-](F)(F)(F)(F)F
101 kPa, x2 = 0
Conditions | viscosity [mPa·s]
299.15 K | 101.9 ± 2.7
301.15 K | 92 ± 2.2
303.15 K | 83.4 ± 1.8

O + CCCCCC[n+]1ccc(C)cc1.[Br-]
100 kPa, frequency 0.003 MHz, x2 = 0
Conditions | electrical conductivity [S/m]
288.15 K | 0.0001
308.15 K | 0.00022

CCCC[N+]1(C)CCCC1.N#C[N-]C#N + CCCC[N+]1(C)CCCC1.O=S(=O)([N-]S(=O)(=O)C(F)(F)F)C(F)(F)F + O=S(=O)([N-]S(=O)(=O)C(F)(F)F)C(F)(F)F.[Li+]
electrical conductivity [S/m], 101 kPa, frequency 0 MHz
Conditions | 298 K | 303 K | 308 K | 313 K | 318 K | 323 K
x2 = 0.475, x1 = 0.475 | 0.481 ± 0.048 | 0.572 ± 0.057 | 0.67 ± 0.067 | 0.788 ± 0.079 | 0.912 ± 0.091 | 1.05 ± 0.1
x2 = 0.5, x1 = 0.5 | 0.565 ± 0.057 | 0.642 ± 0.064 | 0.746 ± 0.075 | 0.857 ± 0.086 | 0.962 ± 0.096 | 1.12 ± 0.11

viscosity [mPa·s], 101 kPa
Conditions | 298 K | 303 K | 308 K | 313 K | 318 K | 323 K | 328 K
x2 = 0.475, x1 = 0.475 | 60.7 ± 3.1 | 51.9 ± 2.7 | 42.6 ± 2.2 | 35.9 ± 1.8 | 31.2 ± 1.6 | 27.6 ± 1.4 | 24.2 ± 1.2
x2 = 0.5, x1 = 0.5 | 51.3 ± 2.7 | – | 32 ± 1.6 | 26.7 ± 1.4 | 22.7 ± 1.2 | 19.7 ± 1 | 17.06 ± 0.87

CN(CCO)CCO + CCCC[n+]1ccn(C)c1.F[B-](F)(F)F
101 kPa
Conditions | viscosity [mPa·s]
293.15 K, x2 = 0.8999 | 105.6 ± 6.5
303.15 K, x2 = 0.3 | 43.7 ± 2.6
303.15 K, x2 = 0.8999 | 63.5 ± 3.9
323.15 K, x2 = 0.1974 | 17.8 ± 1.1
323.15 K, x2 = 0.6 | 18.8 ± 1.1
333.15 K, x2 = 0.1974 | 12.09 ± 0.73
333.15 K, x2 = 0.7998 | 16.8 ± 1

CCCC[n+]1ccn(C)c1.F[B-](F)(F)F + CC(C)O
viscosity [mPa·s], 101 kPa
Conditions | 293.15 K | 298.15 K | 303.15 K | 308.15 K | 313.15 K | 318.15 K | 323.15 K
x1 = 0.0804 | 4.9 ± 0.74 | 4.2 ± 0.63 | 3.89 ± 0.58 | 3.46 ± 0.52 | 2.84 ± 0.43 | 2.16 ± 0.32 | 1.48 ± 0.22
x1 = 0.1585 | 7.6 ± 1.1 | 7 ± 1 | 6.52 ± 0.98 | 5.78 ± 0.87 | 4.67 ± 0.7 | 3.41 ± 0.51 | 2.15 ± 0.32
x1 = 0.2402 | 11.4 ± 1.7 | 10.3 ± 1.5 | 9.5 ± 1.4 | 8.4 ± 1.3 | 6.8 ± 1 | 4.9 ± 0.74 | 3.01 ± 0.45
x1 = 0.3505 | 16 ± 2.4 | 15 ± 2.3 | 14 ± 2.1 | 12.4 ± 1.9 | 9.9 ± 1.5 | 7.1 ± 1.1 | 4.34 ± 0.65
x1 = 0.4422 | 20.7 ± 3.1 | 19.7 ± 2.9 | 18.2 ± 2.7 | 16 ± 2.4 | 12.9 ± 1.9 | 9.3 ± 1.4 | 5.78 ± 0.87
x1 = 0.5619 | 28.4 ± 4.3 | 26.7 ± 4 | 24.9 ± 3.7 | 21.9 ± 3.3 | 17.6 ± 2.7 | 12.9 ± 1.9 | 8.3 ± 1.2
x1 = 0.6491 | 36.8 ± 5.5 | 34.3 ± 5.2 | 31.3 ± 4.7 | 27.6 ± 4.1 | 22.2 ± 3.3 | 16.5 ± 2.5 | 10.8 ± 1.6
x1 = 0.7409 | 48.5 ± 7.3 | 44.8 ± 6.7 | 40 ± 6 | 34.6 ± 5.2 | 27.9 ± 4.2 | 20.9 ± 3.2 | 14.1 ± 2.1
x1 = 0.8458 | 69 ± 10 | 61.6 ± 9.2 | 53.7 ± 8.1 | 45.8 ± 6.9 | 36.8 ± 5.5 | 27.8 ± 4.2 | 19.3 ± 2.9
x1 = 0.9327 | 95 ± 14 | 82 ± 12 | 70 ± 11 | 58.8 ± 8.9 | 47.1 ± 7.1 | 35.9 ± 5.4 | 25.4 ± 3.8
x1 = 1 | 125 ± 19 | 105 ± 16 | 88 ± 13 | 72 ± 11 | 57.7 ± 8.7 | 44 ± 6.6 | 31.6 ± 4.7

CC1COC(=O)O1 (stereo not given) + CCCC[N+]1(C)CCCC1.O=S(=O)([N-]S(=O)(=O)C(F)(F)F)C(F)(F)F
101 kPa, x1 = 1
Conditions | electrical conductivity [S/m] | viscosity [mPa·s]
293.15 K | 0.002 ± 0.002 | 2.72 ± 0.02
303.15 K | 0.002 ± 0.002 | 2.29 ± 0.02
313.15 K | 0.002 ± 0.002 | 2 ± 0.02

CCCC[n+]1ccn(C)c1.F[B-](F)(F)F + CC(=O)c1ccccc1
100 kPa, x2 = 0
Conditions | viscosity [mPa·s]
293.15 K | 133 ± 27
303.15 K | 77 ± 15
313.15 K | 49.1 ± 9.8
323.15 K | 33 ± 6.6
333.15 K | 23.3 ± 4.7

O + CCCCCCCCCCCCCCCC[n+]1ccccc1.O=C([O-])c1ccccc1O
101 kPa, x2 = 0
Conditions | electrical conductivity [S/m]
293.15 K | 0.000135 ± 8.1e-06
298.15 K | 0.000158 ± 9.5e-06
303.15 K | 0.000178 ± 1.1e-05
308.15 K | 0.000197 ± 1.2e-05
313.15 K | 0.000246 ± 1.5e-05

Reference: the CheMixHub ionic liquid set
